In PubChem BioAssay (NCI):
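Five concentrations, 48 hours, 96-well plates. GI50 = concentration required for 50% inhibition of growth. TGI denotes the concentration required for complete inhibition of growth.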

Assays:
Assay in all cases: NCI tumour cell line growth inhibition, 48 h
HT29 colon = test system: HT29 colon
HOP-92 NSCLC = test system: HOP-92 NSCLC
EKVX NSCLC = test system: EKVX NSCLC
SR leukemia = test system: SR leukemia
UACC-257 melanoma = test system: UACC-257 melanoma
COLO 205 colon = test system: COLO 205 colon
NCI-H226 lung = test system: NCI-H226 lung
NCI-H23 lung = test system: NCI-H23 lung
SN12C renal = test system: SN12C renal
MDA-MB-435 = test system: MDA-MB-435

| Structure (SMILES) | TGI (HT29 colon) | TGI (HOP-92 NSCLC) | TGI (EKVX NSCLC) | TGI (SR leukemia) | TGI (UACC-257 melanoma) | TGI (COLO 205 colon) | GI50 (HT29 colon) | GI50 (NCI-H226 lung) | TGI (NCI-H226 lung) | GI50 (EKVX NSCLC) | GI50 (SR leukemia) | GI50 (NCI-H23 lung) | TGI (NCI-H23 lung) | GI50 (UACC-257 melanoma) | GI50 (COLO 205 colon) | GI50 (SN12C renal) | TGI (SN12C renal) | GI50 (MDA-MB-435) | TGI (MDA-MB-435) | GI50 (HOP-92 NSCLC) |
| --- | --- | --- | --- | --- | --- | --- | --- | --- | --- | --- | --- | --- | --- | --- | --- | --- | --- | --- | --- | --- |
| CCOC(=O)C1C(NC(N)=O)N(Cc2ccccc2)C(=O)N1Cc1ccccc1 (stereo unspecified) | > 100 µM | > 100 µM | > 100 µM | > 100 µM | > 100 µM | > 100 µM | – | – | – | – | – | – | – | – | – | – | – | – | – | – |
| CC[C@]12C=CCN3CC[C@@]4(c5ccc(OC)cc5N(C)[C@H]4[C@@](O)(C(=O)OC)[C@@H]1OC(=O)CCCN1CCN(CCCC(=O)O[C@@H]4[C@]5(CC)C=CCN6CC[C@@]7(c8ccc(OC)cc8N(C)[C@H]7[C@@]4(O)C(=O)OC)[C@@H]65)CC1)[C@@H]32 | 1.2 µM | – | 2.97 µM | 0.738 µM | 3.69 µM | 3.25 µM | 324 nM | 1730 nM | 3.47 µM | 1440 nM | 252 nM | 1590 nM | 3.13 µM | 1960 nM | 1670 nM | 1140 nM | 2.55 µM | 1250 nM | 2.63 µM | – |
| c1cc(OCCCCCOc2cccc(-c3nc4ccccc4[nH]3)c2)cc(-c2nc3ccccc3[nH]2)c1 | > 100 µM | 4.68 µM | 6.97 µM | – | 7.85 µM | 2.79 µM | 2870 nM | 1920 nM | > 100 µM | 2210 nM | – | – | – | 2870 nM | 1470 nM | 4610 nM | > 100 µM | 2260 nM | 6.74 µM | 1090 nM |
| N#CC1(CCCCl)CCCCC1 | > 100 µM | > 100 µM | > 100 µM | > 100 µM | > 100 µM | > 100 µM | – | – | – | – | – | – | > 100 µM | – | – | – | > 100 µM | – | – | – |
| COc1ccc(-c2c(Nc3ccccn3)nc3c(C4=CCCCC4)c(-c4ccccc4)[nH]n3c2=O)cc1 | > 100 µM | 9.26 µM | 36.9 µM | – | 66.3 µM | > 100 µM | 2620 nM | 2780 nM | 17.8 µM | 2970 nM | – | 4170 nM | 24.1 µM | 5000 nM | 2340 nM | 2700 nM | > 100 µM | 2710 nM | > 100 µM | 1450 nM |
| Cc1ccccc1NC(=O)CC(=O)NNCC(=O)Nc1nnc(-c2ccccc2)s1 | > 100 µM | – | > 100 µM | > 100 µM | > 100 µM | > 100 µM | – | – | > 100 µM | – | – | – | > 100 µM | – | – | – | > 100 µM | – | – | – |
| Cc1ccccc1NC(=O)C1C(=O)N(c2ccccc2C)C(=O)/C1=N\NC(N)=O (stereo unspecified) | > 100 µM | > 100 µM | > 100 µM | > 100 µM | > 100 µM | > 100 µM | – | – | – | – | – | – | > 100 µM | – | – | – | > 100 µM | – | – | – |
| CC(C)(C)C1CC[C@H]2c3c([nH]c4ccccc34)[C@H]3C(=O)N(c4ccc(F)cc4)C(=O)[C@H]3[C@H]2C1 (stereo partly specified) | – | 48.1 µM | 36.9 µM | – | 54.2 µM | 30.4 µM | – | – | 35.3 µM | – | – | – | 33.4 µM | – | – | – | 23.6 µM | – | – | – |
| O=[N+]([O-])c1ccc(/C=C/c2ccc(/C=C/c3ccc([N+](=O)[O-])cc3[N+](=O)[O-])cc2)c([N+](=O)[O-])c1 | > 100 µM | – | > 100 µM | – | > 100 µM | – | – | – | > 100 µM | – | – | – | > 100 µM | – | – | – | – | – | – | – |
| Cc1cccc(Oc2ccc(Nc3ncnc4ccc(NC(=O)CN(C)C)cc34)cc2Cl)c1 | 3.77 µM | 3.99 µM | 4.19 µM | – | 3.3 µM | 3.48 µM | 1760 nM | 11900 nM | 28.3 µM | 512 nM | – | 2950 nM | 11.6 µM | 1710 nM | 1710 nM | 1340 nM | 3.13 µM | 1670 nM | 3.14 µM | 1400 nM |
| CCCCC(C(=O)C(=O)Nc1ccccc1CC)C(=O)C(C)C (stereo unspecified) | > 100 µM | > 100 µM | > 100 µM | – | > 100 µM | > 100 µM | – | – | > 100 µM | – | – | – | > 100 µM | – | – | – | > 100 µM | – | – | – |
| CC1(C)CC2=NO[Se]3=C2C(=NO3)C1 | 10.1 µM | 8.21 µM | 9.68 µM | – | 5.64 µM | 3.73 µM | – | – | 11.6 µM | – | – | – | 5.65 µM | – | – | – | 13 µM | – | 15.5 µM | – |
| C#CCCCCCC(=O)N[C@H]1C=C[C@@H]2/C=C(C)/C=C/[C@@H](C)[C@H]([C@H](C)[C@H](O)[C@@H](C)NC(C)=O)OC(=O)/C=C/C=C(C)\C=C\[C@]2(C)C1 | 25.1 µM | 0.0159 µM | > 40 µM | 9.53 µM | 0.0324 µM | 4.06 µM | < 4 nM | 4.78 nM | 6.05 µM | 21.3 nM | < 4 nM | 94.2 nM | > 40 µM | < 4 nM | 4.14 nM | < 4 nM | > 40 µM | – | – | < 4 nM |
| C/C(=C\c1ccccc1)C(O)C(=O)c1nc2ccc(Cl)cc2[nH]c1=O (stereo unspecified) | > 100 µM | – | > 100 µM | > 100 µM | > 100 µM | > 100 µM | – | – | > 100 µM | – | – | – | > 100 µM | – | – | – | > 100 µM | – | – | – |
| O=C(O)c1cn(C2CC2)c2cc(N3CCN(C(=O)N(c4ccccc4)c4nc(-c5ccccc5)cs4)CC3)c(F)cc2c1=O | – | 0.948 µM | > 100 µM | – | – | – | – | – | – | 397 nM | – | – | – | – | – | 308 nM | > 100 µM | – | – | 241 nM |
| COC(=O)C1CC(=O)O[C@H]1c1ccc(OC)c(OC)c1 (stereo partly specified) | > 100 µM | > 100 µM | > 100 µM | > 100 µM | > 100 µM | > 100 µM | – | – | > 100 µM | – | – | – | > 100 µM | – | – | – | > 100 µM | – | – | – |
| CN(C)c1ccc(/C=c2/sc3nc(=O)c(-c4ccccc4NC(=O)C(F)(F)F)nn3c2=O)cc1 | > 100 µM | > 100 µM | > 100 µM | > 100 µM | – | > 100 µM | – | – | > 100 µM | – | – | – | > 100 µM | – | – | – | > 100 µM | – | – | – |
| CN(C)c1ccc(/C=C2\CCc3ccccc3C2=O)cc1Br | > 100 µM | > 100 µM | > 100 µM | > 100 µM | > 100 µM | > 100 µM | – | – | > 100 µM | – | – | – | > 100 µM | – | – | – | > 100 µM | – | – | – |
| O/N=C1/C(=C/c2ccc(OCc3ccccc3)cc2)CCCC1C(NO)c1ccc(OCc2ccccc2)cc1 (stereo unspecified) | > 100 µM | 63.5 µM | > 100 µM | > 100 µM | > 100 µM | > 100 µM | – | – | > 100 µM | – | – | – | > 100 µM | – | – | – | 9.54 µM | – | – | – |
